Test results published in US7538234B2, “Preparation of Optically active 2-(1-hydroxyethyl)-5-hydroxynaphtho[2,3-b]furan-4, 9-diones having anticancer activities” (Taheebo Japan Co., Ltd., priority 2007, dated 2009).

How the values were obtained:
[1] = system: human breast cancer cell MCF-7; experiment: Cytotoxicity experiment (trypan blue dead cell count, 3 days incubation); format: cell-based; settings: for EC50: concentration of 50% of dead cells, 3 days incubation
Procedure: (§1) Cytotoxicity experiments were carried out by using human prostate cancer cell PC-3 (Invest. Urology 17: 16, (1979)), human lung cancer cell A-549 (J. Nat. Cancer Inst. 51: 1417, (1973)) and human breast cancer cell MCF-7 (cr. Table 1). Cells used in the experiments were obtained from Laboratory Products Dept. of Dainippon Pharmaceuticals Inc. (now Dainippon Sumitomo Pharma Co., Ltd.). • (1) In 3 cm plastic petri dish, 5×10^6 of the above human origin cancer cell was incubated at 37° C. under 5% CO2 gas on an incubation medium wherein 10% fetal bovine serum (FBS) was added to a basal medium Dulbecco's modified eagle medium (DMEM). • (2) It was confirmed 1 day after the incubation that the cells were adhered to the petri dish. All incubation media were discarded, and to the cells were added fresh media (1 ml) to give reaction media. Thereto was added a solution of a test compound in DMSO (2 μl), and the mixture was incubated for 3 days under the same conditions as in the above (1). • (3) 3 days after the incubation, all cells were collected with a scrapper, and the mixture was softly stirred. Then, an aliquot (0.1 ml) was taken into a tube, and thereto was added 0.25% trypan blue solution (0.1 ml), and the mixture was stirred and then allowed to stand for 10 minutes. Both of dead and live cells suspended in the mixture were observed using a white cell counter under light microscope to calculate cytotoxicity effects to the cancer cells. • (4) The number of the observed dead cells was calculated on the basis of the total number of cells observed as 100% using a white cell counter. Each bioactivity evaluation of each compound was represented by EC50 value (μM), which refers to a concentration of 50% of dead cells (cf. Table 1).

[2] = system: human lung cancer cell A-549; experiment: as above; format: cell-based; settings: for EC50: concentration of 50% of dead cells, 3 days incubation
Procedure: as §1

[3] = system: human prostate cancer cell PC-3; experiment: as above; format: cell-based; settings: for EC50: concentration of 50% of dead cells, 3 days incubation
Procedure: as §1

[4] = system: Epstein-Barr virus early antigen (EBV-EA); experiment: Inhibitory effect of TPA-induced EBV-EA activation in Raji cells; format: cell-based, human; settings: for EBV-EA-positive cell: Raji cells, 2 days
Procedure: (§2) Additionally, cancer-preventing effects about Epstein-Barr virus early antigen (EBV-EA) using Raji cell, which was available from George Klein, Karolinska Institute, Sweden, were studied (cf. Table 2). • (1) To a reaction culture (1 ml) in a 15 ml plastic tube were added 1×10^6 of lymphoma Raji cells of human origin, and the mixture was incubated for 2 days at 37° C. under 5% CO2 gas. The reaction culture was a solution wherein butyric acid was added to RPMI-1640 (Roswell Park Memorial Institute) medium containing 8% FBS in a concentration of 4 mM. In case of positive controls, to the reaction culture was added 12-O-tetradecanoylphorbol-13-acetate (TPA) (20 ng, 32 pmol). • (2) Analysis was carried out by adding test compounds to the reaction culture in the above (1) with TPA in 1000, 500, 100 and 10 times higher concentration by mole (32, 16, 3.2 and 0.32 nmol) to TPA and incubating in a similar manner to the above. • (3) 2 days after incubation, a reaction tube was centrifuged at 1000 rpm for 10 minutes, and supernatants were discarded to collect reaction cells at the bottom of the tube, and thereto was added a phosphate buffered saline (0.1 ml) and the mixture was mixed well. To a glass slide for pathological pieces was added the mixture (5 μl), and then the mixture was air-dried to dryness. • (4) An antigen-antibody reaction was carried out at 37° C. in wet process by adding a diluted serum (1 μl) of patient with epipharynx carcinoma to the dried mixture. 45 minutes after the reaction, the resultant was washed with neutral phosphate buffer three times and then air-dried in a similar manner to the above. Then, thereto was added human blood gamma globulin antibody (1 μl), wherein a fluorescent substance was bound, to carry out an antigen-antibody reaction. 45 minutes after the reaction, the mixture was washed with neutral phosphate buffer to give a test sample. • (5) The test sample on a glass slide was observed under fluorescent light microscope. Both of dead and live cells were calculated, and the survival ratio in percentage is shown as a cancer-preventing activity, and the data of each sample were compared (cf. Table 2).

Raji cell = experiment: Survival of Raji cells in the EBV-EA activation test; format: cell-based, human; settings: 2 days
Procedure: as §2

[5] = compound concentration 10 (molar ratio/32 pmol TPA)
[6] = compound concentration 100 (molar ratio/32 pmol TPA)
[7] = compound concentration 500 (molar ratio/32 pmol TPA)
[8] = compound concentration 1000 (molar ratio/32 pmol TPA)

Compound: CC(O)c1cc2c(o1)C(=O)c1cccc(O)c1C2=O (racemic) [Racemate NQ801, 2-(1-hydroxyethyl)-5-hydroxynaphtho[2,3-b]furan-4,9-dione]
- EC50 ([1]; Homo sapiens, MCF7, 72 h): 8.5 µM
- EC50 ([2]; Homo sapiens, A549, 72 h): 3.24 µM
- EC50 ([3]; Homo sapiens, 72 h): 0.56 µM
- EBV-EA-positive cell [4, 5]: 52.9%
- EBV-EA-positive cell [4, 6]: 20.7%
- EBV-EA-positive cell [4, 7]: 6.2%
- EBV-EA-positive cell [4, 8]: 0%
- % survival (value in parentheses) (Raji cell; [7]): (70) %
- % survival (value in parentheses) (Raji cell; [8]): 60%

Compound: C[C@@H](O)c1cc2c(o1)C(=O)c1cccc(O)c1C2=O [(R)-NQ801]
- EC50 [1]: 9.3 µM
- EC50 [2]: 3 µM
- EC50 [3]: 0.93 µM
- EBV-EA-positive cell [4, 5]: 59.4%
- EBV-EA-positive cell [4, 6]: 24.7%
- EBV-EA-positive cell [4, 7]: 9.7%
- EBV-EA-positive cell [4, 8]: 0%
- % survival (value in parentheses) (Raji cell; [8]): 70%

Compound: C[C@H](O)c1cc2c(o1)C(=O)c1cccc(O)c1C2=O [(S)-NQ801, (S)-2-(1-hydroxyethyl)-5-hydroxynaphtho[2,3-b]-furan-4,9-dione]
- EC50 ([1]; Homo sapiens, MCF7, 72 h): 3.5 µM
- cytotoxicity compared with mitomycin ([1]; MCF-7, statement in words): same cytotoxicity as mitomycin
- cytotoxicity compared with mitomycin ([2]; A-549, statement in words): same cytotoxicity as mitomycin
- EC50 ([2]; Homo sapiens, A549, 72 h): 0.96 µM
- EC50 ([3]; Homo sapiens, 72 h): 0.14 µM
- cytotoxicity compared with mitomycin ([3]; PC-3, statement in words): same cytotoxicity as mitomycin
- EBV-EA-positive cell [4, 5]: 50%
- EBV-EA-positive cell [4, 6]: 16.9%
- EBV-EA-positive cell [4, 7]: 4.4%
- EBV-EA-positive cell [4, 8]: 0%
- inhibition of EBV-EA expression ([4]; statement in words): inhibits EBV-EA expression
- % survival (value in parentheses) (Raji cell; [7]): (60) %
- % survival (value in parentheses) (Raji cell; [8]): 60%

Compound: CO[C@@]12[C@H](COC(N)=O)C3=C(C(=O)C(C)=C(N)C3=O)N1C[C@@H]1N[C@@H]12 [Mitomycin]
- EC50 ([1]; Homo sapiens, MCF7, 72 h): 0.96 µM
- EC50 ([2]; Homo sapiens, A549, 72 h): 0.43 µM
- EC50 ([3]; Homo sapiens, 72 h): 0.14 µM

Compound: CC1(C)CCC2=C(O1)c1ccccc1C(=O)C2=O [β-Lapachone, 3,4-dihydro-2,2-dimethyl-2H-naphtho(1,2-b)pyrane-5,6-dione]
- EBV-EA-positive cell [4, 5]: 73.1%
- EBV-EA-positive cell [4, 6]: 50.4%
- EBV-EA-positive cell [4, 7]: 21.7%
- EBV-EA-positive cell [4, 8]: 4.7%
- % survival (value in parentheses) (Raji cell; [8]): 50%
